Some test systems named below: HCT-15 colon; OVCAR-4 ovarian; SN12C renal; NCI-H460 lung; SK-OV-3 ovarian; SF-539 CNS; MALME-3M melanoma; SR leukemia; HCT-116 colon; NCI/ADR-RES ovarian.
Test in all cases: NCI tumour cell line growth inhibition, 48 h

Where “and” joins values, the source holds several entries; their conditions need not be identical. Equal entries are not always repeated.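 These data come from cells grown in 96-well plates and exposed to compound for 48 hours at five concentrations. The concentration for 50% growth inhibition is given as GI50. TGI: total growth inhibition.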

As for `CCCC[C@H]1C(=O)O[C@H](C)[C@H](NC(=O)c2cccc(NC=O)c2O)C(=O)O[C@@H](C)[C@@H]1OC(=O)CC(C)C`, the TGI in the assay on HCT-15 colon was found to be 22 µM; with OVCAR-4 ovarian, 63.4 µM; in the assay with SN12C renal, 40.7 µM; with NCI-H460 lung, 27.4 µM; in the assay on SK-OV-3 ovarian it was 54.4 µM; with SF-539 CNS it was 31.8 µM. Also, the TGI with MALME-3M melanoma was found to be 50.9 µM; in the assay with SR leukemia, 38.3 µM; with HCT-116 colon, 19.5 µM; in the assay with NCI/ADR-RES ovarian, 65.6 µM.
As for `O=C(/C=C/c1ccc(OCC(=O)N2CCN(c3ccccc3)CC2)cc1)c1ccc(Cl)cc1`, the TGI with HCT-15 colon is more than 100 µM; with OVCAR-4 ovarian, more than 97.7 µM; with SN12C renal, more than 100 µM; with NCI-H460 lung it was more than 100 µM; in the assay on SK-OV-3 ovarian, 73.8 µM; in the assay on SF-539 CNS, 56.6 µM. The TGI in the assay with MALME-3M melanoma, in the assay on SR leukemia, in the assay on HCT-116 colon and in the assay with NCI/ADR-RES ovarian was more than 100 µM each time.
For the compound `Cc1c(C#N)cccc1-c1cc(-c2cn(Cc3cccc(C(C)(C)O)n3)nn2)nc(N)n1`, the GI50 with HCT-15 colon was 23.2 µM; with OVCAR-4 ovarian, 9.69 µM; in the assay with SN12C renal it was 17.2 µM; in the assay on NCI-H460 lung, 44.9 µM; with SK-OV-3 ovarian it was 48.8 µM; with SF-539 CNS it was 39.6 µM. The GI50 is 31.3 µM with MALME-3M melanoma, 13.3 µM in the assay on SR leukemia, 32.1 µM with HCT-116 colon and 24.1 µM with NCI/ADR-RES ovarian. For the same compound, the TGI in the assay on HCT-15 colon, in the assay on OVCAR-4 ovarian, with SN12C renal, in the assay with NCI-H460 lung, in the assay with SK-OV-3 ovarian and in the assay with SF-539 CNS was more than 100 µM in each case. Besides, the TGI with MALME-3M melanoma, in the assay with SR leukemia, with HCT-116 colon and with NCI/ADR-RES ovarian was more than 100 µM in each case.
Regarding `O=C(/C=C/c1cccnc1)NCCCCC1CCN(C(=O)c2ccccc2)CC1`, the GI50 was less than 0.01 µM with HCT-15 colon; > 66 µM and 26.2 µM with OVCAR-4 ovarian; less than 0.01 µM in the assay with SN12C renal; 0.274 µM and 0.0767 µM in the assay with NCI-H460 lung; more than 100 µM in the assay with SK-OV-3 ovarian; less than 0.01 µM with SF-539 CNS. The GI50 was more than 86.5 µM in the assay on MALME-3M melanoma, less than 0.01 µM with HCT-116 colon and less than 0.0135 µM with NCI/ADR-RES ovarian. The TGI with HCT-15 colon, in the assay on OVCAR-4 ovarian, in the assay with SN12C renal, with NCI-H460 lung, with SK-OV-3 ovarian and in the assay on SF-539 CNS was more than 100 µM throughout. The TGI in the assay on MALME-3M melanoma, in the assay with SR leukemia, with HCT-116 colon and with NCI/ADR-RES ovarian was more than 100 µM throughout.
As for `COc1ccc(/C=C/C(=O)c2cc3c(N)c(C(=O)Nc4ccccc4Cl)sc3nc2C)cc1`, the GI50 in the assay on HCT-15 colon is 2.96 µM; in the assay on OVCAR-4 ovarian, 1.7 µM; in the assay with SN12C renal it was 3.78 µM; in the assay on NCI-H460 lung, 2.2 µM; with SK-OV-3 ovarian, 3.58 µM; with SF-539 CNS, 2.04 µM. In addition, the GI50 is 0.736 µM in the assay on MALME-3M melanoma, 3.77 µM in the assay on SR leukemia, 1.11 µM in the assay on HCT-116 colon and 1.62 µM with NCI/ADR-RES ovarian. Further, the TGI was more than 50 µM in the assay with HCT-15 colon; 46 µM in the assay on OVCAR-4 ovarian; more than 50 µM with SN12C renal; more than 50 µM with NCI-H460 lung; 19 µM with SK-OV-3 ovarian; 9.45 µM in the assay with SF-539 CNS. Moreover, the TGI in the assay with MALME-3M melanoma is 9.21 µM; in the assay on SR leukemia, more than 50 µM; with HCT-116 colon, more than 50 µM; in the assay with NCI/ADR-RES ovarian, 16 µM.
For `Nc1ccc2c(SCCSc3c4ccccc4nc4cc(N)ccc34)c3ccccc3nc2c1`, the TGI in the assay with HCT-15 colon, in the assay with OVCAR-4 ovarian, with SN12C renal, in the assay with NCI-H460 lung, with SK-OV-3 ovarian and with SF-539 CNS was more than 100 µM in each case. Moreover, the TGI with MALME-3M melanoma, with SR leukemia, in the assay on HCT-116 colon and in the assay on NCI/ADR-RES ovarian was more than 100 µM in each case.
Take `OCc1cn(Cc2cccc(Cl)c2)c2ccccc12`: the GI50 in the assay on HCT-15 colon was 5.79 µM; in the assay on OVCAR-4 ovarian, 0.107 µM; with SN12C renal, 12 µM; in the assay on NCI-H460 lung, 0.0346 µM; in the assay on SK-OV-3 ovarian it was 4.42 µM; with SF-539 CNS, 13.5 µM. Further, the GI50 in the assay on MALME-3M melanoma was 12.3 µM; in the assay on SR leukemia, 12.3 µM; with HCT-116 colon, less than 0.0163 µM; with NCI/ADR-RES ovarian, 13.7 µM. Further, the TGI is 43.8 µM in the assay on HCT-15 colon; 11.3 µM with OVCAR-4 ovarian; 42.6 µM in the assay with SN12C renal; 17.9 µM with NCI-H460 lung; 47.4 µM in the assay with SK-OV-3 ovarian; 30.9 µM with SF-539 CNS. In addition, the TGI stood at 30.6 µM in the assay on MALME-3M melanoma, 44.1 µM in the assay on SR leukemia, 13.5 µM in the assay on HCT-116 colon and 62 µM with NCI/ADR-RES ovarian.
As for `C(=N\Nc1ccccn1)/c1ccccn1`, the GI50 with HCT-15 colon was 0.368 µM; with OVCAR-4 ovarian it was 0.26 µM; with SN12C renal, 0.443 µM; in the assay with NCI-H460 lung it was 0.321 µM; in the assay on SK-OV-3 ovarian, 0.393 µM; in the assay with SF-539 CNS, 0.333 µM. The GI50 in the assay with MALME-3M melanoma is 0.293 µM; in the assay on SR leukemia, 0.367 µM; in the assay on HCT-116 colon, 0.303 µM; with NCI/ADR-RES ovarian, 0.359 µM. Moreover, the TGI in the assay on HCT-15 colon is more than 100 µM; with SN12C renal, more than 100 µM; in the assay with NCI-H460 lung it was 3.98 µM; with SF-539 CNS, 2.31 µM; in the assay with MALME-3M melanoma, 2.69 µM; in the assay with SR leukemia it was more than 100 µM. In addition, the results for the TGI in the assay on HCT-116 colon and with NCI/ADR-RES ovarian were more than 100 µM and more than 39.7 µM, respectively.
As for `COc1cc2oc(=O)ccc2cc1C1OC(=O)C2OC21C` (configuration not stated), the TGI in the assay on HCT-15 colon, in the assay with OVCAR-4 ovarian, in the assay on SN12C renal, with NCI-H460 lung, with SK-OV-3 ovarian and with SF-539 CNS was more than 100 µM throughout. For the same compound, the TGI in the assay on MALME-3M melanoma, in the assay on SR leukemia, in the assay with HCT-116 colon and with NCI/ADR-RES ovarian was more than 100 µM in each case.

(Values after PubChem BioAssay (NCI).)
